Source: patent US20160363584A1, “SYSTEMS AND METHODS FOR STUDYING INFLAMMATION-DRUG INTERACTIONS” (Hepregen Corporation, priority 2012, published 2016)
Like-named read-outs stand apart in the source and are kept apart here.

How the values were obtained:
[1] = system: human Kupffer-HepatoPac™ cultures; type: cell-based
Procedure: Cryopreserved human hepatocytes, cryopreserved human Kupffer cells and 3T3 J2 mouse fibroblasts were used in the manufacturing of the co-culture platform. Cryopreserved hepatocyte vials were thawed in a 37° C. water bath for 90-120 seconds followed by dilution in 50 mL of pre-warmed percoll-based hepatocyte density sedimentation medium (p=1.06). The cell suspension was spun at 50×g for 5 minutes. The supernatant was discarded, cells were resuspended in hepatocyte culture media (HCM) (Hepregen Corporation, Medford, Mass.) and viability was assessed using trypan blue exclusion (typically 80-95%). Liver-derived non-parenchymal cells, as judged by their size (˜10 μm in diameter) and morphology (non-polygonal), were consistently found to be less than 1% in these preparations. […] Kupffer cells were gently rocked into suspension and evaluated for viability via Trypan Blue exclusion. […]
Cytotoxicity was assessed by evaluation of cellular ATP content while hepatocyte metabolic competence was assessed by urea production. […] The reaction is based on the acid catalyzed condensation of urea with diacetylmonoxime in the presence of thiosemicarbazide to yield a red purple chromogen that is read spectrophotometrically. The cellular ATP content was measured in cell lysates using the Cell Titer-Glo luminescent kit from Promega (Madison, Wis.). […]

[2] = system: human Kupffer cell-treated HepatoPac™ model; assay: Chronic toxicity platform, nine day treatment, cellular ATP content; type: cell-based; conditions: for Toxicity in the presence of LPS-stimulated Kupffer cells: 50 ng/ml LPS; for Toxicity following nine days of compound dosing: all treatment conditions (HepatoPac or Kupffer cell-treated, +/- LPS)
Procedure: Chronic toxicity of various compounds suspected to be immunoreactive was evaluated with the human Kupffer cell-treated HepatoPac™ model (hepatocyte:Kupffer cell ratio of 1:0.4). Following a nine day treatment, compound toxicity was assessed as a function of cellular ATP content. TVX was used as a positive control. […] On day 7, cryopreserved unmatched Kupffer cells were added to the cultures. The cultures were dosed with compounds on culture Day 8 (hereby referred to as Dosing Day 0). On Dosing Day 1, LPS was added to the culture media at a final concentration of 50 ng/ml. On Dosing Day 3, 10 μl of supernatant was removed from cultures for urea analysis and replaced with an additional dose of the test compound. Similarly, supernatant was collected and cultures were re-dosed on Dosing Days 5 and 7. On Dosing Day 9, supernatant was collected and the cellular ATP content of the cultures was assessed (Promega Cell Titer Glo). Urea secretion of hepatocytes was quantified for the time-points of Dosing Day […], 5, 7, and 9 (data not shown).

mouse = conditions: cited from earlier work; for Effect on TVX/LPS toxic response: in vivo mouse model, Shaw et al.
[3] = system: Human HepatoMune™ co-cultures; assay: cells
Procedure: Hepatocytes were seeded on micropatterned collagen plates on Day 0. On Day 1, 3T3 fibroblasts were added to the cultures. Human HepatoPac® co-cultures were allowed to stabilize functionally for 7 days in serum-supplemented medium. Human Kupffer cells (from unmatched donors) were seeded onto the hepatocyte cocultures on Day 7 of culture at a hepatocyte to Kupffer cell ratio of 10:4. […] Cell lysates from each treatment group were collected on days 11 and 14 of culture for assessment of drug-induced effects on cytotoxicity.

[4] = system: rat Kupffer-HepatoPac™ cultures; type: cell-based
Procedure: Cytotoxicity was assessed by evaluation of cellular ATP content while hepatocyte metabolic competence was assessed by urea production. Production of urea, a liver-specific function, was assayed in culture media using the Stanbio kit according to manufacturer's directions. The reaction is based on the acid catalyzed condensation of urea with diacetylmonoxime in the presence of thiosemicarbazide to yield a red purple chromogen that is read spectrophotometrically. The cellular ATP content was measured in cell lysates using the Cell Titer-Glo luminescent kit from Promega (Madison, Wis.).
HepatoPac™ co-cultures were first allowed to stabilize functionally in serum-supplemented media for a 7-day period. Species-matched Kupffer cells were added to human and rat HepatoPac™ at multiple ratios (to mimic both the normal and inflamed state of the liver). To mimic the physiological state, human and rate Kupffer cells were added at hepatocyte:Kupffer cell ratios of 1:0.1 and 1:0.2, respectively. To mimic the inflamed state human Kupffer cells (at a ratio of 1:0.4 hepatocytes:Kupffer cells) or rat Kupffer cells (at a ratio of 1:0.5 hepatocytes:Kupffer cells) were then added to the cultures. On day 8 of culture, the cultures were treated with increasing concentrations of either Trovafloxacin or Levofloxacin (0-400 μM) in serum-free media. 24 hrs later, the cultures were stimulated with 50 ng/mL LPS. […]

TNF-α = TNF-α secretion in TVX/LPS-treated rat cultures with pentoxifylline; type: cell-based; conditions: 5 mM pentoxifylline
Procedure: Cultures were treated with Trovafloxacin and 5 mM Pentoxifylline for 72 hours. After 24 hours of dosing, Kupffer cells were activated with 50 ng/ml of LPS.

[5] = system: HepatoPac™-Kupffer cell co-cultures; assay: IL-6 secretion after cytokine exposure of HepatoPac-Kupffer cell co-cultures; type: cell-based, human; conditions: 2 or 4 day treatment
Procedure: (§1) Cultures received 2 or 4 day treatment with IL-2, IL-1B, TNF-α, or IL-6 in serum-free media after which cytokine levels were assayed in their supernatants, Cyp3A4 activity was determined using the P450-Glo Assay (Promega), total ATP was measured (Promega Cell-Titer Glo) and RNA was extracted (Qiagen Rneasy).
Cultures were exposed to IL-2, IL-1B and TNF-α and secretion of IL-6 into the culture supernatant was measured.

Procedure for CYP3A4: as §1
Standard human HepatoPac™ and Kupffer cell-treated HepatoPac™ (hepatocyte:Kupffer cell ratio of 1:0.4) cultures were treated with the inflammatory cytokine IL-1B for 4 days. Sensitivity to IL-1B was measured as a function of Cyp3A4 activity repression. Following 4 days of IL-1B treatment, cytokines were removed and cultures were allowed to recover for 6 days.

N[C@@H]1[C@H]2CN(c3nc4c(cc3F)c(=O)c(C(=O)O)cn4-c3ccc(F)cc3F)C[C@@H]12 [TVX, trovafloxacin]
TVX toxicity on addition of TNF-α [1]: potentiates TVX toxicity
Toxicity in the presence of LPS-stimulated Kupffer cells ([2]; 9-day treatment): increased toxicity
Toxicity following nine days of compound dosing [2]: toxicity in all treatment conditions was observed
Toxicity under LPS-induced inflammatory stress (mouse; mouse, in vivo): toxic

CN(C)CCCN1c2ccccc2Sc2ccc(Cl)cc21 [chlorpromazine]
IC50 ([3]; read-out: IC50 (concentration at which 50% of the cells are dead), absence of LPS): 29 µM
IC50 ([3]; read-out: IC50 (concentration at which 50% of the cells are dead), presence of 50 ng/ml LPS): 17 µM

O=C(O)Cc1ccccc1Nc1c(Cl)cccc1Cl [diclofenac]
LPS-mediated toxicity after 3-day treatment ([2]; 3-day treatment (data not shown)): did not result in increased LPS-mediated toxicity
Toxicity in the presence of LPS-stimulated Kupffer cells ([2]; 9-day treatment): increased toxicity

CC(=O)N1CCN(c2ccc(OCC3COC(Cn4ccnc4)(c4ccc(Cl)cc4Cl)O3)cc2)CC1 (stereo not drawn) [ketoconazole]
Difference in TC50 between treatment groups ([2]; 9-day treatment): no significant difference
Toxicity following nine days of compound dosing [2]: toxicity in all treatment conditions was observed

C[C@H]1COc2c(N3CCN(C)CC3)c(F)cc3c(=O)c(C(=O)O)cn1c23 [levofloxacin]
Toxicity (cellular ATP content) [4]: not toxic

CC(=O)CCCCn1c(=O)c2c(ncn2C)n(C)c1=O [pentoxifylline]
Effect on TVX/LPS-induced HepatoPac toxicity ([4]; 5 mM pentoxifylline, 72 hours, 50 ng/ml LPS after 24 hours): significantly decreased
Effect on TNF-α secretion (TNF-α): significantly decreased
Effect on TVX/LPS toxic response (mouse): toxicity abrogation

IL-1B: inflammatory cytokine
IL-6 secretion into the culture supernatant [5]: causes IL-6 release
CYP3A4 expression (CYP3A4): Repression of CYP3A4 expression
Cyp3A4 activity (CYP3A4): dose-dependent and Kupffer cell-enhanced repression
Time Cyp3A4 activity remained repressed after removal of IL-1B (CYP3A4; human, 96 h): 4 days

IL-6: cytokine
Cyp3A4 activity (CYP3A4): maintains repression

TNF-α
IL-6 secretion into the culture supernatant [5]: no effect

etanercept
Effect on TVX/LPS toxic response (mouse): toxicity abrogation
